Experiments:
retrobulbar blood flow = test: Effect of benzalkonium chloride compositions on retrobulbar blood flow (Example 2); format: in vivo; conditions: benzalkonium chloride (0.01%, 0.05, 0.1%, 0.2% in isotonic PBS pH 7.4), sufficient amount, as a mist; animals
Description: The effect of compositions including benzalkonium chloride administered in accordance with the teachings herein is performed substantially as described in Example 1. Specifically, four isotonic PBS compositions having pH of 7.4 are prepared having 0.01%, 0.05, 0.1% and 0.2% benzalkonium chloride, respectively, as an ocular irritant.
The compositions are administered to animals and the effect on retrobulbar blood flow is determined, substantially as described above.

eye = test: Discomfort and irritation of animals after benzalkonium chloride compositions (Example 2); format: in vivo

benzalkonium chloride was tested, and the “Effect on retinal blood flow” value (retrobulbar blood flow) was “substantial increase in retinal blood flow”, the Discomfort and irritation (eye; benzalkonium chloride composition as a mist) was “little or no substantial discomfort and irritation” and the Discomfort and irritation (eye; benzalkonium chloride composition as drops) was “cause discomfort and irritation”.

Reference: patent US20110014294A1, “STIMULATION OF OCULAR RETROBULBAR BLOOD FLOW USING OCULAR IRRITANTS” (PHARMALIGHT INC., priority 2008, published 2011)
